A value given as a limit tells only on which side of the number the result lay.

In the assay the target is T1, GST-tagged-Wee1 kinase (Homo sapiens, UniProt P30291).
T1 construct: purchased Carnabio (Carna Biosciences) 05-177
T1 sequence (P30291 whole entry): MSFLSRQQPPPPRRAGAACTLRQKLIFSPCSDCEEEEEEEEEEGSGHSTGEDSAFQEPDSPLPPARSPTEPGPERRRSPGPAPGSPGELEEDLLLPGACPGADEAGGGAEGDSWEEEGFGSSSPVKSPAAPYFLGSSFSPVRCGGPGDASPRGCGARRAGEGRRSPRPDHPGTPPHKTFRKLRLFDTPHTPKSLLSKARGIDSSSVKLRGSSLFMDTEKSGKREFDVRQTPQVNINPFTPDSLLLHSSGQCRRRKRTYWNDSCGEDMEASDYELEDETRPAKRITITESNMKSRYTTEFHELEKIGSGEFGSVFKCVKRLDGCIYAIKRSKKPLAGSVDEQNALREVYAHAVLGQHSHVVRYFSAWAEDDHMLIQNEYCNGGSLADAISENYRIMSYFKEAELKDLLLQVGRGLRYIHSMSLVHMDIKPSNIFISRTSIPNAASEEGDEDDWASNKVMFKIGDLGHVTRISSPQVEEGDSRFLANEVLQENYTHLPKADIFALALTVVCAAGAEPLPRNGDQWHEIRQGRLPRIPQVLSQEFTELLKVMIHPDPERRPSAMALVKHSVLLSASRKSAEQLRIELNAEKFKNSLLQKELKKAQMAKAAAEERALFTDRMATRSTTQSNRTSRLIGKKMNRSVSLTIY
Put plainly: Wee1 time-resolved fluorescence equilibrium binding assay (displacement of Oregon Green-labeled ATP-competitive kinase probe). As to conditions: read-out: Wee-1 inhibition (Ki). In a few lines:
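Ki values derive from competitive displacement, under equilibrium, of a fast-reversible ATP-site Oregon Green kinase probe from GST-tagged Wee1, detected by time-resolved fluorescence.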
What is called Ki is a measure of affinity in units of concentration, obtained from inhibition or displacement. As to `O=c1c2cnc(Nc3ccc(N4CCC[C@H]4CN4CCCC4)cc3)nc2n2ccnc2n1-c1ccccc1Cl` [Example 249, 6-(2-chlorophenyl)-2-({4-[(2S)-2-(pyrrolidin-1-ylmethyl)pyrrolidin-1-yl]phenyl}amino)imidazo[1,2-a]pyrimido[5,4-e]pyrimidin-5(6H)-one], the inhibition constant (Ki) is less than 10 nM.

`CN(C)CCCN1CCN(c2ccc(Nc3ncc4c(=O)n(-c5ccccc5Cl)c5nccn5c4n3)cc2)CC1` [Example 250, 6-(2-chlorophenyl)-2-[(4-{4-[3-(dimethylamino)propyl]piperazin-1-yl}phenyl)amino]imidazo[1,2-a]pyrimido[5,4-e]pyrimidin-5(6H)-one]: the Ki is less than 10 nM. Take `COC[C@H]1CCCN1c1ccc(Nc2ncc3c(=O)n(-c4ccccc4Cl)c4nccn4c3n2)cc1` [Example 251, 6-(2-chlorophenyl)-2-({4-[(2R)-2-(methoxymethyl)pyrrolidin-1-yl]phenyl}amino)imidazo[1,2-a]pyrimido[5,4-e]pyrimidin-5(6H)-one]: the Ki was less than 10 nM.

In the case of `CCN(CC)C(=O)C1CCCN(c2ccc(Nc3ncc4c(=O)n(-c5ccccc5Cl)c5nccn5c4n3)cc2)C1` (stereo not drawn) [Example 252, 1-(4-{[6-(2-chlorophenyl)-5-oxo-5,6-dihydroimidazo[1,2-a]pyrimido[5,4-e]pyrimidin-2-yl]amino}phenyl)-N,N-diethylpiperidine-3-carboxamide], the Ki was less than 10 nM. Next, `O=C1CCCN1CCCNc1ccc(Nc2ncc3c(=O)n(-c4ccccc4Cl)c4nccn4c3n2)cc1` [Example 253, 6-(2-chlorophenyl)-2-[(4-{[3-(2-oxopyrrolidin-1-yl)propyl]amino}phenyl)amino]imidazo[1,2-a]pyrimido[5,4-e]pyrimidin-5(6H)-one]: less than 10 nM; `O=c1c2cnc(Nc3ccc(N4CCN(c5ccc(F)cc5)CC4)cc3)nc2n2ccnc2n1-c1ccccc1Cl` [Example 254, 6-(2-chlorophenyl)-2-({4-[4-(4-fluorophenyl)piperazin-1-yl]phenyl}amino)imidazo[1,2-a]pyrimido[5,4-e]pyrimidin-5(6H)-one]: 10 to 100 nM; `CN(C)C1CCN(c2ccc(Nc3ncc4c(=O)n(-c5c(F)cccc5Cl)c5nccn5c4n3)cc2)CC1` [Example 255, 6-(2-chloro-6-fluorophenyl)-2-({4-[4-(dimethylamino)piperidin-1-yl]phenyl}amino)imidazo[1,2-a]pyrimido[5,4-e]pyrimidin-5(6H)-one]: less than 10 nM. In the case of `O=c1c2cnc(Nc3ccc4c(c3)CC(N3CC[C@H](F)C3)C4)nc2n2ccnc2n1-c1c(F)cccc1Cl` (stereo partly drawn) [Example 256, 6-(2-chloro-6-fluorophenyl)-2-({2-[(3S)-3-fluoropyrrolidin-1-yl]-2,3-dihydro-1H-inden-5-yl}amino)imidazo[1,2-a]pyrimido[5,4-e]pyrimidin-5(6H)-one], the Ki was less than 10 nM. As to `O=c1c2cnc(Nc3ccc4c(c3)CC(NCCF)C4)nc2n2ccnc2n1-c1c(F)cccc1Cl` (stereo not drawn) [Example 257, 6-(2-chloro-6-fluorophenyl)-2-({2-[(2-fluoroethyl)amino]-2,3-dihydro-1H-inden-5-yl}amino)imidazo[1,2-a]pyrimido[5,4-e]pyrimidin-5(6H)-one], the Ki was less than 10 nM. The value for `CCCNC1Cc2ccc(Nc3ncc4c(=O)n(-c5c(F)cccc5Cl)c5nccn5c4n3)cc2C1` (stereo not drawn) [Example 258, 6-(2-chloro-6-fluorophenyl)-2-{[2-(propylamino)-2,3-dihydro-1H-inden-5-yl]amino}imidazo[1,2-a]pyrimido[5,4-e]pyrimidin-5(6H)-one] was less than 10 nM; that for `O=c1c2cnc(Nc3ccc4c(c3)CC(N3CCCC3)C4)nc2n2ccnc2n1-c1c(F)cccc1Cl` (stereo not drawn) [Example 259, 6-(2-chloro-6-fluorophenyl)-2-{[2-(pyrrolidin-1-yl)-2,3-dihydro-1H-inden-5-yl]amino}imidazo[1,2-a]pyrimido[5,4-e]pyrimidin-5(6H)-one] was less than 10 nM; that for `CN(C)CCN1CCN(c2ccc(Nc3ncc4c(=O)n(-c5ccccc5Cl)c5nccn5c4n3)cc2)CC1` [Example 260, 6-(2-chlorophenyl)-2-[(4-{4-[2-(dimethylamino)ethyl]piperazin-1-yl}phenyl)amino]imidazo[1,2-a]pyrimido[5,4-e]pyrimidin-5(6H)-one] was less than 10 nM.

For `CN(C)CCCN(C)c1ccc(Nc2ncc3c(=O)n(-c4ccccc4Cl)c4nccn4c3n2)cc1` [Example 261, 6-(2-chlorophenyl)-2-[(4-{[3-(dimethylamino)propyl](methyl)amino}phenyl)amino]imidazo[1,2-a]pyrimido[5,4-e]pyrimidin-5(6H)-one], the Ki was less than 10 nM. In the case of `CCN(CCN(C)C)c1ccc(Nc2ncc3c(=O)n(-c4ccccc4Cl)c4nccn4c3n2)cc1` [Example 262, 6-(2-chlorophenyl)-2-[(4-{[2-(dimethylamino)ethyl](ethyl)amino}phenyl)amino]imidazo[1,2-a]pyrimido[5,4-e]pyrimidin-5(6H)-one], the Ki is less than 10 nM. The value for `CN(C)CCN(C)c1ccc(Nc2ncc3c(=O)n(-c4ccccc4Cl)c4nccn4c3n2)cc1` [Example 263, 6-(2-chlorophenyl)-2-[(4-{[2-(dimethylamino)ethyl](methyl)amino}phenyl)amino]imidazo[1,2-a]pyrimido[5,4-e]pyrimidin-5(6H)-one] was less than 10 nM. The value for `COC[C@@H]1CCCN1c1ccc(Nc2ncc3c(=O)n(-c4ccccc4Cl)c4nccn4c3n2)cc1` [Example 264, 6-(2-chlorophenyl)-2-({4-[(2S)-2-(methoxymethyl)pyrrolidin-1-yl]phenyl}amino)imidazo[1,2-a]pyrimido[5,4-e]pyrimidin-5(6H)-one] was 10 to 100 nM; that for `CC(C)C(=O)N1Cc2cc(Nc3ncc4c(=O)n(-c5c(F)cccc5Cl)c5nccn5c4n3)ccc2C2(CC2)C1` [Example 265, 6-(2-chloro-6-fluorophenyl)-2-{[2′-(2-methylpropanoyl)-2′,3′-dihydro-1′H-spiro[cyclopropane-1,4′-isoquinolin]-7′-yl]amino}imidazo[1,2-a]pyrimido[5,4-e]pyrimidin-5(6H)-one] was less than 10 nM. Next, `CC(C)(C)C(=O)N1Cc2cc(Nc3ncc4c(=O)n(-c5c(F)cccc5Cl)c5nccn5c4n3)ccc2C2(CC2)C1` [Example 266, 6-(2-chloro-6-fluorophenyl)-2-{[2′-(2,2-dimethylpropanoyl)-2′,3′-dihydro-1′H-spiro[cyclopropane-1,4′-isoquinolin]-7′-yl]amino}imidazo[1,2-a]pyrimido[5,4-e]pyrimidin-5(6H)-one]: less than 10 nM; `O=C(C1CCCC1)N1Cc2cc(Nc3ncc4c(=O)n(-c5c(F)cccc5Cl)c5nccn5c4n3)ccc2C2(CC2)C1` [Example 267, 6-(2-chloro-6-fluorophenyl)-2-{[2′-(cyclopentylcarbonyl)-2′,3′-dihydro-1′H-spiro[cyclopropane-1,4′-isoquinolin]-7′-yl]amino}imidazo[1,2-a]pyrimido[5,4-e]pyrimidin-5(6H)-one]: less than 10 nM; `O=c1c2cnc(Nc3ccc(NCCc4c[nH]cn4)cc3)nc2n2ccnc2n1-c1ccccc1Cl` [Example 268, 6-(2-chlorophenyl)-2-[(4-{[2-(1H-imidazol-4-yl)ethyl]amino}phenyl)amino]imidazo[1,2-a]pyrimido[5,4-e]pyrimidin-5(6H)-one]: less than 10 nM. In the case of `O=c1c2cnc(Nc3ccc(NCCCn4ccnc4)cc3)nc2n2ccnc2n1-c1ccccc1Cl` [Example 269, 6-(2-chlorophenyl)-2-[(4-{[3-(1H-imidazol-1-yl)propyl]amino}phenyl)amino]imidazo[1,2-a]pyrimido[5,4-e]pyrimidin-5(6H)-one], the inhibition constant (Ki) was less than 10 nM.

As for `O=c1c2cnc(Nc3ccc(N4CCSCC4)cc3)nc2n2ccnc2n1-c1ccccc1Cl` [Example 270, 6-(2-chlorophenyl)-2-{[4-(thiomorpholin-4-yl)phenyl]amino}imidazo[1,2-a]pyrimido[5,4-e]pyrimidin-5(6H)-one], the Ki was less than 10 nM. The value for `CC(C)NCCN(c1ccc(Nc2ncc3c(=O)n(-c4ccccc4Cl)c4nccn4c3n2)cc1)C(C)C` [Example 271, 6-(2-chlorophenyl)-2-[(4-{propan-2-yl[2-(propan-2-ylamino)ethyl]amino}phenyl)amino]imidazo[1,2-a]pyrimido[5,4-e]pyrimidin-5(6H)-one] was less than 10 nM; that for `NC(=O)C1CCCN(c2ccc(Nc3ncc4c(=O)n(-c5ccccc5Cl)c5nccn5c4n3)cc2)C1` (stereo not drawn) [Example 272, 1-(4-{[6-(2-chlorophenyl)-5-oxo-5,6-dihydroimidazo[1,2-a]pyrimido[5,4-e]pyrimidin-2-yl]amino}phenyl)piperidine-3-carboxamide] was 10 to 100 nM; that for `CN1CCCC1CCNc1ccc(Nc2ncc3c(=O)n(-c4c(Cl)cccc4Cl)c4nccn4c3n2)cc1` (stereo not drawn) [Example 273, 6-(2,6-dichlorophenyl)-2-[(4-{[2-(1-methylpyrrolidin-2-yl)ethyl]amino}phenyl)amino]imidazo[1,2-a]pyrimido[5,4-e]pyrimidin-5(6H)-one] was less than 10 nM. The value for `CC(C)C(=O)N1Cc2cc(Nc3ncc4c(=O)n(-c5c(Cl)cccc5Cl)c5nccn5c4n3)ccc2C2(CC2)C1` [Example 274, 6-(2,6-dichlorophenyl)-2-{[2′-(2-methylpropanoyl)-2′,3′-dihydro-1′H-spiro[cyclopropane-1,4′-isoquinolin]-7′-yl]amino}imidazo[1,2-a]pyrimido[5,4-e]pyrimidin-5(6H)-one] was less than 10 nM; that for `O=C(C1CC1)N1Cc2cc(Nc3ncc4c(=O)n(-c5c(Cl)cccc5Cl)c5nccn5c4n3)ccc2C2(CC2)C1` [Example 275, 2-{[2′-(cyclopropylcarbonyl)-2′,3′-dihydro-1′H-spiro[cyclopropane-1,4′-isoquinolin]-7′-yl]amino}-6-(2,6-dichlorophenyl)imidazo[1,2-a]pyrimido[5,4-e]pyrimidin-5(6H)-one] was less than 10 nM.
